Where two headings read alike, the source gives them in different places.
Assays:
[1] = parameters: method as in PMID 15972077; conditions: animal feed naturally contaminated with ZEN and α-ZEL; cited from earlier work
[2] = Average daily gains and feed conversion of gilts during 42-day per os exposure; assay type: in vivo
Description: The animals were divided into an experimental group (E, n = 18) and a control group (C, n = 21). Group E animals were orally administered ZEN at 40 μg/kg BW. Group C pigs were fed a placebo. The animals were fed complete diets in a restricted feeding regimen (Table 1). The daily dose of ZEN (40 µg/kg BW) was administered to each animal individually, which corresponds to exposure to 957–1014 µg ZEN/kg of a complete diet, depending on daily feed intake. Zearalenone was biosynthesized, purified and standardized by the Department of Chemistry of the Poznań University of Life Sciences. The experiment covered a period of 42 days. The mycotoxin was administered per os daily, in gelatine capsules before the morning feeding. The ZEN dose was adjusted to the body weight of the experimental animals. The mycotoxin was administered in capsules to prevent problems associated with uneven feed intake. Mycotoxin samples were diluted in 300 μL of 96% ethyl alcohol (96% ethyl alcohol, SWW 2442-90, Polskie Odczynniki Chemiczne SA, Gliwice, Poland) to the required dose level (based on body weight). Final solutions were stored at room temperature for 12 h to evaporate the solvent. The animals were weighed every 7 days to update mycotoxin doses for each gilt. Three animals from the experimental group and the control group each were sacrificed on Days 1, 7, 14, 21, 28, 35 and 42 (a total of 6 gilts in each week of exposure), excluding day 1, when only 3 control group animals were scarified. Every week, tissue samples were collected from the porcine gastrointestinal tract (duodenum, first and middle sections, jejunum, ileum, cecum, ascending colon, transverse colon, descending colon, middle section, and the liver, left lobe). Tissue samples were collected from the whole intestinal cross-sections.

[3] = in vitro studies, cited from earlier work
[4] = Group E, ZEN 40 μg/kg BW daily per os, throughout the experiment (42 days)

For `C[C@H]1CCCC(=O)CCC/C=C/c2cc(O)cc(O)c2C(=O)O1` [ZEN, zearalenone], the “absorbed from the duodenum” value [1] is given as 65%, the “differences in average daily gains between groups” value ([2]; Group E (ZEN 40 μg/kg BW daily per os) vs Group C (placebo)) is given as “No significant differences” and the average daily gains [2, 4] is given as 602 g. The “feed per kg of BW gain” value [2, 4] was 2.61 kg feed per kg of BW gain, the “ingested ZEN absorbed in the small intestine” value ([3]; ref 12) was 55% and the “ingested ZEN absorbed in the small intestine” value ([3]; ref 26) was 51%.
